Drawing on patent US8435978B2, “Substituted sulfonamide compounds” (Gruenenthal GmbH, priority 2006, dated 2013), this text covers inhibition for ten compounds.

Experiment [1] addresses T1, human B1R receptor (Homo sapiens, UniProt P46663).
T1 construct: host or cells: CHO K1 cells (Chinese hamster ovary), stably transfected
T1 sequence (P46663 1-353): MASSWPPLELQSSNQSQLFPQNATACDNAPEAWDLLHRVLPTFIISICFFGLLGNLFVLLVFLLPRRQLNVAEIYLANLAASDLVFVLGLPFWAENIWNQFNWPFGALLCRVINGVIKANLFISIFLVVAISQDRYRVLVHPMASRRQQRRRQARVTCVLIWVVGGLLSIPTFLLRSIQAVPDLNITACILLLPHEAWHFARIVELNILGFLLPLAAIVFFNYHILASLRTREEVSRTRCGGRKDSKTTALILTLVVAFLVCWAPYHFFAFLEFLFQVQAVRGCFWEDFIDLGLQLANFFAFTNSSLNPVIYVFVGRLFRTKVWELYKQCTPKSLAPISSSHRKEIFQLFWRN
As to the kind of experiment: Functional study on the bradykinin receptor 1 (B1R), FLIPR Ca2+ assay, hB1R cells. The conditions noted are these: CHO-K1, test substance 10 μM, agonist Lys-Des-Arg9-bradykinin 0.5 nM, % inhibition compared with the maximum achievable inhibition, read-out: B1R Antagonism, human [10 μM] % Inhibition. In kind it is cell-based. The gist of the method: (§1)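 FLIPR Ca2+ read-out (Fluo-4, peak fluorescence) in stably transfected CHO K1 cells. Compounds at 10 μM, then 10 min later agonist challenge: human B1R with Lys-Des-Arg9-bradykinin 0.5 nM, rat B1R with Des-Arg9-bradykinin 100 nM; reported as % activation or % of maximal inhibition.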

In experiment [2] the target is T2, B1R receptor of the rat (Rattus norvegicus, UniProt P97583).
T2 construct: host or cells: CHO K1 cells (Chinese hamster ovary), stably transfected
T2 sequence (P97583 1-337): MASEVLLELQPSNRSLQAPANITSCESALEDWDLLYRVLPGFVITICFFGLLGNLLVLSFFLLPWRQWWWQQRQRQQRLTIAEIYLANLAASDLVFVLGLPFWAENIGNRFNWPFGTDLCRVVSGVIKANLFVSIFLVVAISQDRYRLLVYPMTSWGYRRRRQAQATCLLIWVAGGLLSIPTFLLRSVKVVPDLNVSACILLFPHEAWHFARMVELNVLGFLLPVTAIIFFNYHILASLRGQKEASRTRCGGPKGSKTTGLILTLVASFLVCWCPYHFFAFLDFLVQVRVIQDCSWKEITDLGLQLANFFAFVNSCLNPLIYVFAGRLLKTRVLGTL
Description: Functional study on the bradykinin receptor 1 (B1R), FLIPR Ca2+ assay, rB1R cells. The conditions noted are these: CHO-K1, test substance 10 μM, agonist Des-Arg9-bradykinin 100 nM, % inhibition compared with the maximum achievable inhibition, read-out: B1R Antagonism, rat [10 μM] % Inhibition. In kind it is cell-based. Put shortly:
as §1

The term inhibition denotes the change of the read-out against control, counted positive when it falls. On to `COc1cc(C)c(S(=O)(=O)N2CCCCC2COCC(=O)N2CCN(c3ccc(Cl)c(Cl)c3)CC2)c(C)c1` (centres unmarked) [Example 378, 1-(4-(3,4-dichlorophenyl)piperazin-1-yl)-2-((1-(4-methoxy-2,6-dimethylphenylsulfonyl)piperidin-2-yl)methoxy)ethanone], for which the values for the inhibition at 10 µM in experiment [1] and in experiment [2] were 63.4% and 98.8%, respectively.

In the case of `COc1cc(C)c(S(=O)(=O)N2CCCCC2COCC(=O)N(C)CCN(C)C)c(C)c1` (centres unmarked) [Example 379, N-(2-(dimethylamino)ethyl)-2-((1-(4-methoxy-2,6-dimethylphenylsulfonyl)piperidin-2-yl)methoxy)-N-methylacetamide], the inhibition at 10 µM in experiment [1] was 67.9%; in experiment [2] it was 102%.

For the compound `CCN(CC)CCN(CC)C(=O)COCC1CCCCN1S(=O)(=O)c1c(C)cc(OC)cc1C` (centres unmarked) [Example 380, N-(2-(diethylamino)ethyl)-N-ethyl-2-((1-(4-methoxy-2,6-dimethylphenylsulfonyl)piperidin-2-yl)methoxy)acetamide], the inhibition at 10 µM was 91.5% in experiment [1] and 101% in experiment [2].

For the compound `COc1cc(C)c(S(=O)(=O)N2CCCCC2COCC(=O)N2CCN(Cc3ccc(Cl)c(Cl)c3)CC2)c(C)c1` (centres unmarked) [Example 381, 1-(4-(3,4-dichlorobenzyl)piperazin-1-yl)-2-((1-(4-methoxy-2,6-dimethylphenylsulfonyl)piperidin-2-yl)methoxy)ethanone], the inhibition at 10 µM came out at 77.9% in experiment [1] and 100% in experiment [2].

For the compound `COc1cc(C)c(S(=O)(=O)N2CCCCC2COCC(=O)N2CCN(Cc3ccc(Br)cc3)CC2)c(C)c1` (centres unmarked) [Example 382, 1-(4-(4-bromobenzyl)piperazin-1-yl)-2-((1-(4-methoxy-2,6-dimethylphenylsulfonyl)piperidin-2-yl)methoxy)ethanone], the values for the inhibition at 10 µM in experiment [1] and in experiment [2] were 103% and 101%, respectively.

For `COc1cc(C)c(S(=O)(=O)N2CCCCC2COCC(=O)N2CCN(Cc3c(C)cc(C)cc3C)CC2)c(C)c1` (centres unmarked) [Example 383, 2-((1-(4-methoxy-2,6-dimethylphenylsulfonyl)piperidin-2-yl)methoxy)-1-(4-(2,4,6-trimethylbenzyl)piperazin-1-yl)ethanone], the results for the inhibition at 10 µM in experiment [1] and in experiment [2] were 40.2% and 102%, respectively.

On to `COc1cc(C)c(S(=O)(=O)N2CCCCC2COCC(=O)N2CCN(Cc3ccc(Cl)cc3)CC2)c(C)c1` (centres unmarked) [Example 384, 1-(4-(4-chlorobenzyl)piperazin-1-yl)-2-((1-(4-methoxy-2,6-dimethylphenylsulfonyl)piperidin-2-yl)methoxy)ethanone], for which the inhibition at 10 µM in experiment [1] was determined as 105%; in experiment [2], 98.6%.

Take `COc1cc(C)c(S(=O)(=O)N2CCCCC2COCC(=O)N2CCN(Cc3ccc(C)cc3)CC2)c(C)c1` (centres unmarked) [Example 385, 2-((1-(4-methoxy-2,6-dimethylphenylsulfonyl)piperidin-2-yl)methoxy)-1-(4-(4-methylbenzyl)piperazin-1-yl)ethanone]: the inhibition at 10 µM in experiment [1] was determined as 101%; in experiment [2], 99.5%.

Turning to `COc1ccc(CN2CCN(C(=O)COCC3CCCCN3S(=O)(=O)c3c(C)cc(OC)cc3C)CC2)cc1` (centres unmarked) [Example 386, 2-((1-(4-methoxy-2,6-dimethylphenylsulfonyl)piperidin-2-yl)methoxy)-1-(4-(4-methoxybenzyl)piperazin-1-yl)ethanone], the inhibition at 10 µM in experiment [1] turned out to be 101%; in experiment [2], 97.9%.

As to `COc1cc(C)c(S(=O)(=O)N2CCCCC2COCC(=O)N2CCN(Cc3ccccc3F)CC2)c(C)c1` (centres unmarked) [Example 387, 1-(4-(2-fluorobenzyl)piperazin-1-yl)-2-((1-(4-methoxy-2,6-dimethylphenylsulfonyl)piperidin-2-yl)methoxy)ethanone], the inhibition at 10 µM in experiment [1] was 91%; in experiment [2], 101%.
